In patent publication US20060228417A1, “Mucoadhesive composition comprising polyacrylate and chemoattractant” (priority 2003, published 2006):
Where no end group is shown, it is not given here.

Assays:
[1] = test system: DC in organotypic cultures of HPV-transformed keratinocytes; assay: DC infiltration depth in organotypic cultures of HPV-transformed keratinocytes; assay type: cell-based, human; settings: 48 hours after chemoattractant addition; GM-CSF 800 U/ml, MCP-1 500 ng/ml, HNP2 750 ng/ml (FIG. 6A)
From the text: (§1) DC were generated from the adherent fraction of human PBMC (Peripheral Blood Mononuclear Cells) with 800 U/ml GM-CSF (Novartis, Brussels) and 20 U/ml IL-4 (Biosource Europe, Nivelles, Belgium), as previously described (16). DC generated for this study constituted a 90% pure cell population based on several criteria including morphology, forward-scatter and side-scatter values observed by FACS (Fluorescence Activated Cell Sorter) analysis and surface phenotype (CD1a+, CD14−, CD4+, CD54+, . . . ).
Organotypic cultures of HPV-transformed keratinocytes (SiHa cell line (10)) were prepared as previously reported (17). After a 2 week stratification of keratinocytes, labeled DC were seeded on top of the in vitro formed epithelium at a concentration of 2×10^5 cells/50 μl of culture medium. The organotypic culture was then placed on the polycarbophil gel containing or not 800 U/ml of GM-CSF. In order to maintain the culture, the polycarbophil gel (1.5 w/w) was prepared by dispersing the Noveon AA1 in keratinocyte growth medium. […]
The density of DC migrating into the epithelial layer was assessed by the avidin-biotin-peroxidase technique (Vectastain ABC kit, Vector laboratories, Burlingame, Calif.) with an anti-CD1a monoclonal antibody (clone NA1/34 from Dako, Glostrup, Denmark). […] The DC infiltration in organotypic cultures was evaluated by measuring the surface of immunostained cells with a computerized system of image analysis (CAS, Becton Dickinson, Erembodegem, Belgium) following a method previously described (6). The entire surface of each culture section was analyzed and 5 sections of each culture were stained with anti-CD1a. The positive surface was expressed as the percentage of the total surface analyzed. In additional experiments, the LC/DC infiltration depth in the organotypic culturs was evaluated by measuring the distance between the top of the epithelium and individual DC with a computerized system of image analysis (CAS, Becton Dikinson, Erembodegem, Belgium). We then calculated the ratio between the infiltration depth and the thickness of the culture. […]

[2] = test system: human DC in xenografts of HPV-transformed keratinocytes (CasKi cell line); assay: Xenograft assay in NOD/SCID mice: DC recruitment into transplants of HPV-transformed keratinocytes; assay type: in vivo
Experimental: HPV-transformed keratinocytes (2×10^5, CasKi cell line, ATCC, CRL-1550) were plated on collagen gel (2 mg/ml of type I collagen isolated from rat tail tendons) inserted in Teflon rings (Renner, Dannstadt, Germany) and maintained in culture for one day before transplantation onto mice. Twelve-week-old NOD-scid/scid mice were used for this study. They were housed under sterile conditions and water and feed were provided ad libitum. Before transplantation, the cells were washed and the medium was drained. […] Fluorescent DC were counted in the epithelium and, after anti-keratin immunolabeling, the epithelial surface was evaluated with a computerized system of image analysis (CAS, Becton Dickinson, Erembodegem, Belgium). Infiltration results were expressed as numbers of DC per mm^2 of epithelium. […]
Graft cryosections (5 μm in thickness) were fixed in acetone at −20° C. and in 80% methanol at 4° C. […] After washes in PBS, coverslips were mounted and labeling was analysed under an microscope equipped with epifluorescence optics.
A control group of mice was treated with PBS alone. […] The DC infiltration in transplants was assessed by looking for stained DC in histological sections. […] Quantitative analysis of DC infiltration was performed by determining the number of DC per mm2 of epithelial tissue.

[3] = test system: DC in organotypic cultures of HPV-transformed keratinocytes (SiHa cell line); assay: DC infiltration into organotypic cultures of HPV-transformed keratinocytes (CD1a labeled surface); assay type: cell-based, human; settings: 800 U/ml GM-CSF, 48 h
From the text: as §1
The DC were labeled with a lipophilic fluorescent marker (CM-DiL, Molecular Probes, Leiden, The Netherlands) according to a previously described procedure with minor modifications. Briefly, 4×106 DC were resuspended in 1 ml of PBS and heated to 37° C. […]
The density of DC migrating into the epithelial layer was assessed by the avidin-biotin-peroxidase technique (Vectastain ABC kit, Vector laboratories, Burlingame, Calif.) with an anti-CD1a monoclonal antibody (clone NA1/34 from Dako, Glostrup, Denmark). […] The DC infiltration in organotypic cultures was evaluated by measuring the surface of immunostained cells with a computerized system of image analysis (CAS, Becton Dickinson, Erembodegem, Belgium) following a method previously described (6). The entire surface of each culture section was analyzed and 5 sections of each culture were stained with anti-CD1a. […]

“granulocyte macrophage—colony stimulating factor [GM-CSF]” was tested, and the “DC infiltration depth in organotypic culture” value (“DC infiltration depth” for short) [1] was “significant increase in the density of DC observed in the epithelial layer”, the “recruitment of DC in the tumor grafts” value ([2]; GM-CSF applied in transplantation chamber versus control mice (FIG. 5)) was “significant (p<0.001) recruitment of DC” and the “DC infiltration in the grafts, number of DC per mm2 of epithelial tissue” value ([2]; NOD-SCID mice, 200 μl injected twice into transplantation chamber, 4×10^5 U/ml or U/g, mean ± SD (n=5)) was 16.6±14.6 DC/mm2. For the same substance, the “DC infiltration, CD1a labeled surface” value ([3]; mean ± SD (n=5)) was 28.33±8.11 % of CD1a labeled surface and the “density of fluorescent-labeled DC within the epithelial sheet” value ([3]; versus absence of GM-CSF (FIG. 4)) was “significant increase in the density of DC”.
“Human Neutrophil Peptide-2 (CYCRIPACIAGERRYGTCIYQGRLWAFCC; ends and bridges not checked; cysteine pairing not given here; UniProt P59665 66-94, looked up) [HNP2, human neutrophil defensin 2, Sigma-Aldrich]” was tested, and the “DC infiltration depth” value [1] was “reached an infiltration level equivalent to that obtained with GM-CSF”.
In the case of Monocyte Chemotactic Protein 1 [MCP1], the “DC infiltration depth” value [1] is reported as “reached an infiltration level equivalent to that obtained with GM-CSF”.
